The values that follow are results of earlier work, collected in US8455540B2, “Gossypol and apogossypol derivatives, preparation thereof and uses thereof” (Universite du Maine (Le Mans), priority 2007, dated 2013).

In series [1] the test system is proteins of the Bcl-2 family. As to conditions: compared with gossypol (apogossypol = deformylated gossypol).
Another series has as its system various types of cancers. As to conditions: compared with gossypol (apogossypol = deformylated gossypol).

Turning to `Cc1cc2c(C(C)C)c(O)c(O)cc2c(O)c1-c1c(C)cc2c(C(C)C)c(O)c(O)cc2c1O` [apogossypol], the “activity on proteins of the Bcl-2 family” value in series [1] is on record as “fully retains its activity”. The “activity on various types of cancers” value with various types of cancers was “fully retains its activity”.
